What was measured:
[1] = test system: Wnt activity (Sp5-Luc reporter, SW480 colon carcinoma cells); experiment: Sp5-Luc Wnt reporter gene assay in SW480 colon carcinoma cells; format: cell-based; details: Homo sapiens; SW480 cells stably expressing Sp5-Luc reporter; 42 h incubation; BrightGlo luminescence normalized to DMSO
Excerpt: The screening assay for Wnt activity is described as follows. Reporter cell lines can be generated by stably transducing cancer cell lines (e.g., colon cancer) or primary cells (e.g., IEC-6 intestinal cells) with a lentiviral construct that includes a Wnt-responsive promoter driving expression of the firefly luciferase gene.
SW480 colon carcinoma cells were transduced with a lentiviral vector expressing luciferase with a human Sp5 promoter consisting of a sequence of eight TCF/LEF binding sites. SW480 cells stably expressing the Sp5-Luc reporter gene and a hygromycin resistance gene were selected by treatment with 150 μg/ml of hygromycin for 7 days. These stably transduced SW480 cells were expanded in cell culture and used for all further screening activities. For Sp5-Luc reporter gene assays, the cells were plated at 10,000 cells/well in 96-well plates with growth medium containing 10% fetal calf serum and incubated overnight at 37° C. and 5% CO2. Each compound was dissolved in DMSO as a 10 mM stock in standard j-vials and used to prepare compound source plates in dose-response format with 3-fold serial dilutions and a 10 mM top concentration. Compound transfer from serially diluted source plates to assay plates containing the cells was accomplished using a pintool (Multimek 96, Beckman equipped with V&P Scientific FP1S50H pins) based liquid handling protocol. This protocol used a slotted pin to transfer 50 nl of compound from a source plate well to an assay plate well containing 50 μl of cells in growth medium. […] Control wells received 50 nl of DMSO treatment for normalization and calculating IC50 values. The treated cells were incubated at 37° C. and 5% CO2 for an additional forty-two hours. Following incubation, the growth medium was removed and 50 μl of BrightGlo luminescence reagent (Promega) was added to each well of the 96-well assay plates. The plates were placed on an orbital shaker for 5 min and then luminescence was quantified on the Victor3 (Perkin Elmer) plate reader. Readings were normalized to DMSO only treated cells, and normalized activities were utilized for IC50 calculations using the dose-response log (inhibitor) vs. response-variable slope (four parameters) nonlinear regression feature available in GraphPad Prism 5.0 or 6.0.

[2] = test system: primary human fibroblasts derived from IPF patients (LL29 cells); experiment: Inhibition of TGF-β1-induced fibrosis (αSMA staining) in primary human fibroblasts from IPF patients; format: cell-based; details: Fibroblast, 96 h, TGF-β1 20 ng/mL, 4 days, 11-point dose-response 10 μM to 1.87 nM
Excerpt: The above synthesized compounds were screened using primary human fibroblasts (derived from IPF patients) treated with TGF-β1 to determine their ability to inhibit the fibrotic process.
Primary human fibroblasts derived from IPF patients (LL29 cells) [^1Xiaoqiu Liu, et. al., “Fibrotic Lung Fibroblasts Show Blunted Inhibition by cAMP Due to Deficient cAMP Response Element-Binding Protein Phosphorylation”, Journal of Pharmacology and Experimental Therapeutics (2005), 315(2), 678-687; ^2Watts, K. L., et. al., “RhoA signaling modulates cyclin D1 expression in human lung fibroblasts; implications for idiopathic pulmonary fibrosis”, Respiratory Research (2006), 7(1), 88] were obtained from American Type Culture Collection (ATCC) and expanded in F12 medium supplemented with 15% Fetal Bovine Serum and Penicillin/Streptomycin.
Each compound was dissolved in DMSO as a 10 mM stock and used to prepare compound source plates. Serial dilution (1:2, 11-point dose-response curves from 10 μM to 1.87 nM) and compound transfer was performed using the ECHO 550 (Labcyte, Sunnyvale, Calif.) into 384-well clear bottom assay plates (Greiner Bio-One) with appropriate DMSO backfill for a final DMSO concentration of 0.1%. LL29 cells were plated at 1,500 cells/well in 80 μl/well F12 medium supplemented with 1% Fetal Bovine Serum. One hour after addition of the cells, TGF-β1 (Peprotech; 20 ng/mL) was added to the plates to induce fibrosis (ref. 1 and 2 above). Wells treated with TGF-β1 and containing DMSO were used as controls. Cells were incubated at 37° C. and 5% CO2 for 4 days. Following incubation for 4 days, SYTOX green nucleic acid stain (Life Technologies [Thermo Fisher Scientific]) was added to the wells at a final concentration of 1 uM and incubated at room temperature for 30 min. Cells were then fixed using 4% formaldehyde (Electron Microscopy Sciences), washed 3 times with PBS followed by blocking and permeabilization using 3% Bovine Serum Albumin (BSA; Sigma) and 0.3% Triton X-100 (Sigma) in PBS. Cells were then stained with antibody specific to α-smooth muscle actin (αSMA; Abcam) (ref 1 and 2 above) in 3% Bovine Serum Albumin (BSA; Sigma) and 0.3% Triton X-100 (Sigma) in PBS, and incubated overnight at 4° C. Cells were then washed 3 times with PBS, followed by incubation with Alexa Flor-647 conjugated secondary antibody (Life Technologies [Thermo Fisher Scientific]) and DAPI at room temperature for 1 hour. Cells were then washed 3 times with PBS and plates were sealed for imaging. αSMA staining was imaged by excitation at 630 nm and emission at 665 nm and quantified using the Compartmental Analysis program on the CellInsight CX5 (Thermo Scientific). Dead or apoptotic cells were excluded from analysis based on positive SYTOX green staining. % of total cells positive for αSMA were counted in each well and normalized to the average of 11 wells treated with TGF-β1 on the same plate using Dotmatics' Studies Software. The normalized averages (fold change over untreated) of 3 replicate wells for each compound concentration were used to create dose-responses curves and EC50 values were calculated using non-linear regression curve fit in the Dotmatics' Studies Software. The EC50 values are reported.

Row | Compound | IC50 [1] [nM] | EC50 [2] [nM]
1 | CCC(=O)Nc1cncc(-c2cnc3[nH]nc(-c4nc5c(N6CCCCC6)nccc5[nH]4)c3c2)c1 [Compound 157, N-(5-(3-(4-(Piperidin-1-yl)-1H-imidazo[4,5-c]pyridin-2-yl)-1H-pyrazolo[3,4-b]pyridin-5-yl)pyridin-3-yl)propionamide] | 148 | 432
2 | CN(C)c1cncc(-c2cnc3[nH]nc(-c4nc5c(N6CCCCC6)nccc5[nH]4)c3c2)c1 [Compound 163, N,N-Dimethyl-5-(3-(4-(piperidin-1-yl)-1H-imidazo[4,5-c]pyridin-2-yl)-1H-pyrazolo[3,4-b]pyridin-5-yl)pyridin-3-amine] | 777 | 9
3 | CN(C)Cc1cncc(-c2cnc3[nH]nc(-c4nc5c(N6CCCCC6)nccc5[nH]4)c3c2)c1 [Compound 169, N,N-Dimethyl-1-(5-(3-(4-(piperidin-1-yl)-1H-imidazo[4,5-c]pyridin-2-yl)-1H-pyrazolo[3,4-b]pyridin-5-yl)pyridin-3-yl)methanamine] | 2270 | 888
4 | O=C(Nc1cncc(-c2cnc3[nH]nc(-c4nc5c(N6CCCCC6)nccc5[nH]4)c3c2)c1)C1CC1 [Compound 175, N-(5-(3-(4-(Piperidin-1-yl)-1H-imidazo[4,5-c]pyridin-2-yl)-1H-pyrazolo[3,4-b]pyridin-5-yl)pyridin-3-yl)cyclopropanecarboxamide] | 413 | 859
5 | FC1(F)CCN(Cc2cncc(-c3cnc4[nH]nc(-c5nc6c(N7CCCCC7)nccc6[nH]5)c4c3)c2)C1 [Compound 181, 5-(5-((3,3-Difluoropyrrolidin-1-yl)methyl)pyridin-3-yl)-3-(4-(piperidin-1-yl)-1H-imidazo[4,5-c]pyridin-2-yl)-1H-pyrazolo[3,4-b]pyridine] | 243 | 1130
6 | Cc1cn(-c2nccc3[nH]c(-c4n[nH]c5ncc(-c6cncc(CN7CCCC7)c6)cc45)nc23)cn1 [Compound 196, 3-(4-(4-Methyl-1H-imidazol-1-yl)-1H-imidazo[4,5-c]pyridin-2-yl)-5-(5-(pyrrolidin-1-ylmethyl)pyridin-3-yl)-1H-pyrazolo[3,4-b]pyridine] | 579 | ≥ 9990
7 | CN1CCN(c2nccc3[nH]c(-c4n[nH]c5ncc(-c6cncc(N)c6)cc45)nc23)CC1 [Compound 211, 5-(3-(4-(4-Methylpiperazin-1-yl)-1H-imidazo[4,5-c]pyridin-2-yl)-1H-pyrazolo[3,4-b]pyridin-5-yl)pyridin-3-amine] | 334 | ≥ 9990
8 | CN1CCN(c2nccc3[nH]c(-c4n[nH]c5ncc(-c6cncc(CN7CCCCC7)c6)cc45)nc23)CC1 [Compound 223, 3-(4-(4-Methylpiperazin-1-yl)-1H-imidazo[4,5-c]pyridin-2-yl)-5-(5-(piperidin-1-ylmethyl)pyridin-3-yl)-1H-pyrazolo[3,4-b]pyridine] | > 10000 | ≥ 9990
9 | Cc1ccncc1-c1cnc2[nH]nc(-c3nc4c(-c5ccsc5)nccc4[nH]3)c2c1 [Compound 239, 5-(4-Methylpyridin-3-yl)-3-(4-(thiophen-3-yl)-1H-imidazo[4,5-c]pyridin-2-yl)-1H-pyrazolo[3,4-b]pyridine] | 18 | 24
10 | O=C(Nc1cncc(-c2cnc3[nH]nc(-c4nc5c(-c6ccsc6)nccc5[nH]4)c3c2)c1)c1ccccc1 [Compound 245, N-(5-(3-(4-(Thiophen-3-yl)-1H-imidazo[4,5-c]pyridin-2-yl)-1H-pyrazolo[3,4-b]pyridin-5-yl)pyridin-3-yl)benzamide] | 102 | 280
11 | c1ccc(CNCc2cncc(-c3cnc4[nH]nc(-c5nc6c(-c7ccsc7)nccc6[nH]5)c4c3)c2)cc1 [Compound 257, N-Benzyl-1-(5-(3-(4-(thiophen-3-yl)-1H-imidazo[4,5-c]pyridin-2-yl)-1H-pyrazolo[3,4-b]pyridin-5-yl)pyridin-3-yl)methanamine] | 309 | 244
12 | c1cc2[nH]c(-c3n[nH]c4ncc(-c5cncc(CNCC6CCCC6)c5)cc34)nc2c(-c2ccoc2)n1 [Compound 284, 1-Cyclopentyl-N-((5-(3-(4-(furan-3-yl)-1H-imidazo[4,5-c]pyridin-2-yl)-1H-pyrazolo[3,4-b]pyridin-5-yl)pyridin-3-yl)methyl)methanamine] | 875 | 1180
13 | CCC(=O)Nc1cncc(-c2cnc3[nH]nc(-c4nc5c(-c6cccs6)nccc5[nH]4)c3c2)c1 [Compound 287, N-(5-(3-(4-(Thiophen-2-yl)-1H-imidazo[4,5-c]pyridin-2-yl)-1H-pyrazolo[3,4-b]pyridin-5-yl)pyridin-3-yl)propionamide] | 22.9 | 578
14 | CN(C)c1cncc(-c2cnc3[nH]nc(-c4nc5c(-c6cccs6)nccc5[nH]4)c3c2)c1 [Compound 293, N,N-Dimethyl-5-(3-(4-(thiophen-2-yl)-1H-imidazo[4,5-c]pyridin-2-yl)-1H-pyrazolo[3,4-b]pyridin-5-yl)pyridin-3-amine] | 37.1 | 9
15 | CN(C)Cc1cncc(-c2cnc3[nH]nc(-c4nc5c(-c6cccs6)nccc5[nH]4)c3c2)c1 [Compound 299, N,N-Dimethyl-1-(5-(3-(4-(thiophen-2-yl)-1H-imidazo[4,5-c]pyridin-2-yl)-1H-pyrazolo[3,4-b]pyridin-5-yl)pyridin-3-yl)methanamine] | 1440 | ≥ 9990
16 | FC1(F)CCN(Cc2cncc(-c3cnc4[nH]nc(-c5nc6c(-c7cccs7)nccc6[nH]5)c4c3)c2)C1 [Compound 311, 5-(5-((3,3-Difluoropyrrolidin-1-yl)methyl)pyridin-3-yl)-3-(4-(thiophen-2-yl)-1H-imidazo[4,5-c]pyridin-2-yl)-1H-pyrazolo[3,4-b]pyridine] | 22.8 | 174
17 | CC(C)CC(=O)Nc1cncc(-c2cnc3[nH]nc(-c4nc5c(-c6ccc(F)s6)nccc5[nH]4)c3c2)c1 [Compound 314, N-(5-(3-(4-(5-Fluorothiophen-2-yl)-1H-imidazo[4,5-c]pyridin-2-yl)-1H-pyrazolo[3,4-b]pyridin-5-yl)pyridin-3-yl)-3-methylbutanamide] | 6.3 | 9
18 | CC(C)(C)C(=O)Nc1cncc(-c2cnc3[nH]nc(-c4nc5c(-c6ccc(F)s6)nccc5[nH]4)c3c2)c1 [Compound 320, N-(5-(3-(4-(5-Fluorothiophen-2-yl)-1H-imidazo[4,5-c]pyridin-2-yl)-1H-pyrazolo[3,4-b]pyridin-5-yl)pyridin-3-yl)pivalamide] | 9.3 | 9
